Measured values reported in ChEMBL document CHEMBL1201862, “PubChem BioAssay data set” (2004).
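In this assay, cells in 96-well plates receive the compound at five concentrations for 48 hours. Endpoints are linearly interpolated between the surrounding concentrations. Abbreviation: GI50, concentration required for 50% inhibition of growth.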 Calls of active or inactive are those of the source. Cut-off read from the data, not from the text of the source: active = GI50 up to about 1.1 µM and inactive = higher.

Legend:
Assay in all cases: NCI-60 cell line screen, 48 h
HOP-62 = system: HOP-62
HT-29 = system: HT-29
KM12 = system: KM12
M14 = system: M14
NCI-H23 = system: NCI-H23
OVCAR-3 = system: OVCAR-3
RPMI-8226 = system: RPMI-8226
RXF 393 = system: RXF 393
SF-268 = system: SF-268
SK-MEL-28 = system: SK-MEL-28
SK-OV-3 = system: SK-OV-3
SN12C = system: SN12C
SNB-75 = system: SNB-75
SR = system: SR
SW-620 = system: SW-620
TK-10 = system: TK-10
U-251 = system: U-251
MDA-MB-231 = system: MDA-MB-231
PC-3 = system: PC-3

Measured: GI50

COC(=O)Cc1cc(=O)n2c3ccccc3n(C)c2c1C#N
inactive: HOP-62 > 100 µM | HT-29 > 100 µM | KM12 > 100 µM | M14 > 100 µM | NCI-H23 > 100 µM | OVCAR-3 > 100 µM | RPMI-8226 > 100 µM | RXF 393 > 100 µM | SF-268 > 100 µM | SK-MEL-28 > 100 µM | SK-OV-3 > 100 µM | SN12C > 100 µM | SNB-75 68.7 µM | SR > 100 µM | SW-620 > 100 µM | TK-10 > 100 µM | U-251 > 100 µM

COC1OC(CO)C(O)C(NC(=O)N(C)N=O)C1O (stereo not given)
inactive: HT-29 > 100 µM | KM12 > 100 µM | M14 > 100 µM | NCI-H23 > 100 µM | OVCAR-3 > 100 µM | RPMI-8226 > 100 µM | RXF 393 > 100 µM | SF-268 > 100 µM | SK-MEL-28 > 100 µM | SK-OV-3 > 100 µM | SN12C > 100 µM | SNB-75 > 100 µM | SR > 100 µM | SW-620 > 100 µM | TK-10 > 100 µM | U-251 > 100 µM

CC1(C)C(CCO)CC1n1ccc(=O)[nH]c1=O (stereo not given)
inactive: HOP-62 > 100 µM | KM12 > 100 µM | M14 > 100 µM | MDA-MB-231 > 100 µM | OVCAR-3 > 100 µM | PC-3 > 100 µM | RXF 393 > 100 µM | SF-268 > 100 µM | SK-MEL-28 > 100 µM | SK-OV-3 > 100 µM | SN12C > 100 µM | SNB-75 > 100 µM | SW-620 > 100 µM | TK-10 > 100 µM | U-251 > 100 µM

COC1(OC)C2(Cl)C(Cl)=C(Cl)C1(Cl)C1C=CC=CC12 (stereo not given)
inactive: HOP-62 > 100 µM | HT-29 47.8 µM | KM12 > 100 µM | M14 57.5 µM | NCI-H23 > 100 µM | OVCAR-3 > 100 µM | RPMI-8226 39.7 µM | RXF 393 82.4 µM | SF-268 > 100 µM | SK-MEL-28 > 100 µM | SK-OV-3 > 100 µM | SN12C 75.3 µM | SNB-75 66.5 µM | SR > 100 µM | SW-620 95.9 µM | TK-10 > 100 µM | U-251 > 100 µM

N=C(N)/N=C(\N)Nc1cnccn1
inactive: HOP-62 > 100 µM | HT-29 > 100 µM | KM12 > 100 µM | M14 > 100 µM | MDA-MB-231 > 100 µM | NCI-H23 > 100 µM | OVCAR-3 > 100 µM | PC-3 > 100 µM | RXF 393 > 100 µM | SK-MEL-28 > 100 µM | SK-OV-3 > 100 µM | SN12C > 100 µM | SNB-75 > 100 µM | SW-620 > 100 µM | TK-10 > 100 µM | U-251 > 100 µM

CCOC(=O)[C@@H]1ON2O[C@H](OC3CCCCC3c3ccccc3)C[C@H]3OC(=O)[C@@H]1C32 (stereo not given in full)
inactive: HOP-62 > 100 µM | HT-29 > 100 µM | KM12 80 µM | M14 > 100 µM | MDA-MB-231 > 100 µM | NCI-H23 27 µM | OVCAR-3 > 100 µM | RPMI-8226 > 100 µM | RXF 393 > 100 µM | SF-268 > 100 µM | SK-OV-3 > 100 µM | SN12C > 100 µM | SNB-75 > 100 µM | SR > 100 µM | SW-620 > 100 µM | TK-10 > 100 µM | U-251 > 100 µM

Nc1ncnc2c1ncn2C1OC(CSCC(F)(F)F)C(O)C1O (stereo not given)
inactive: HOP-62 > 100 µM | HT-29 > 100 µM | KM12 > 100 µM | M14 > 100 µM | NCI-H23 > 100 µM | OVCAR-3 > 100 µM | RPMI-8226 > 100 µM | RXF 393 > 100 µM | SF-268 > 100 µM | SK-MEL-28 > 100 µM | SK-OV-3 > 100 µM | SN12C > 100 µM | SNB-75 > 100 µM | SR > 100 µM | SW-620 > 100 µM | TK-10 > 100 µM | U-251 > 100 µM
